Common to all, as to format: biochemical
Test [1] addresses Pim-1 (Homo sapiens (Human), UniProt P11309). As to the kind of experiment: Pim-1 kinase assay (AlphaScreen, Biotin-labeled BAD peptide substrate). As to conditions: 1 mM ATP; read-out: Pim1 IC50. The method, boiled down: (§1)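 Kinase reactions ran 1 h at 25° C, pH 7.5, with 0.05 μM biotin-BAD peptide, 1 mM ATP, and 2.5 μM Pim-1 or 1.25 μM Pim-3. EDTA stop buffer carried anti-phospho-Bad (Ser112) antibody plus streptavidin donor and Protein-A acceptor beads. AlphaScreen signal was read after 1 h in the dark.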
(Bead proximity is the source of the signal in Alpha formats.)

The target in test [2] is Pim-3 (Homo sapiens (Human), UniProt Q86V86). As to the kind of experiment: Pim-3 kinase assay (AlphaScreen, Biotin-labeled BAD peptide substrate). As to conditions: 1 mM ATP; read-out: Pim3 IC50. The method, boiled down:
as §1

Test [3] concerns the target Pim-2 (Homo sapiens (Human), UniProt Q9P1W9). Put plainly: Pim-2 kinase assay (TR-FRET, Fluorescein-labeled CREBtide peptide substrate). As to conditions: 1 mM ATP; read-out: Pim2 IC50. Put shortly:
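Human Pim-2 (1 nM) phosphorylated 0.05 μM fluorescein-CREBtide with 1 mM ATP for 2 h at 25 °C in Tris buffer pH 7.5 containing MgCl2, DTT, BSA and Tween-20. Reactions were stopped with EDTA and Tb-anti-pSer133 antibody was added, and TR-FRET was read after 30 min.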
For orientation: TR-FRET usually uses a lanthanide donor and a delayed reading to cut background.

Each structure is given as a SMILES string. Where only a bound is given, the exact number is not on record here.

Pim-1, sequence (P11309 whole entry): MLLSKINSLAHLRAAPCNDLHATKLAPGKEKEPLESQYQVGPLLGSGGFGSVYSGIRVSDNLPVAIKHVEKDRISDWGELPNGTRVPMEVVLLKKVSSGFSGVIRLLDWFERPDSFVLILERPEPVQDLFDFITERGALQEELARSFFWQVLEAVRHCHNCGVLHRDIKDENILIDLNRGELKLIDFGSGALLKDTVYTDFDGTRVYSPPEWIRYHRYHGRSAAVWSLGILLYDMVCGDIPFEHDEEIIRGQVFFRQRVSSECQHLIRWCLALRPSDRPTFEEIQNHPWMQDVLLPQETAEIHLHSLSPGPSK
Pim-2, sequence (Q9P1W9 whole entry): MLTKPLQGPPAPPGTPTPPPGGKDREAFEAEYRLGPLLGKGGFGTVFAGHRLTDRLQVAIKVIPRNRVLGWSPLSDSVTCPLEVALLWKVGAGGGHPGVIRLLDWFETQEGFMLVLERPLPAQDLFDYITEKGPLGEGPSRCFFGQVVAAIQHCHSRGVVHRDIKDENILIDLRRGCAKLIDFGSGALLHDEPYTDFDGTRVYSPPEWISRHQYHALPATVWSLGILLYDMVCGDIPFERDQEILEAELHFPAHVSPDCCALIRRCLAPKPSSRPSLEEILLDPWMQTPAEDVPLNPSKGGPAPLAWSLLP

In the case of `COc1ccc(-c2cc3nc(C(=O)Nc4cnccc4N4C[C@H](C)C[C@H](N)C4)ccc3s2)cn1` [Example 55, N-(4-((3S,5R)-3-Amino-5-methylpiperidin-1-yl)pyridin-3-yl)-2-(6-methoxypyridin-3-yl)thieno[3,2-b]pyridine-5-carboxamide], the IC50 – broadly, the concentration that inhibits the measured activity by half – in test [1] is ≤ 10 nM; in test [2], ≤ 10 nM; in test [3] it was 100 to 1000 nM.

Consider `C[C@@H]1C[C@H](N)CN(c2ccncc2NC(=O)c2ccc3sc(-c4ccc(N5CCOCC5)nc4)cc3n2)C1` [Example 56, N-(4-((3S,5R)-3-Amino-5-methylpiperidin-1-yl)pyridin-3-yl)-2-(6-morpholinopyridin-3-yl)thieno[3,2-b]pyridine-5-carboxamide], for which the 50% inhibitory concentration (IC50) in test [1] was ≤ 10 nM; in test [2], ≤ 10 nM; in test [3] it was 100 to 1000 nM.

As for `COc1cc(F)c(-c2cc3nc(C(=O)Nc4cnccc4N4C[C@H](C)C[C@H](N)C4)ccc3s2)c(F)c1` [Example 57, N-(4-((3S,5R)-3-Amino-5-methylpiperidin-1-yl)pyridin-3-yl)-2-(2,6-difluoro-4-methoxyphenyl)thieno[3,2-b]pyridine-5-carboxamide], the concentration for half-maximal inhibition (IC50) in test [1] was ≤ 10 nM; in test [2], ≤ 10 nM; in test [3] it was 100 to 1000 nM.

Regarding `C[C@@H]1C[C@H](N)CN(c2ccncc2NC(=O)c2ccc3sc(-c4ccccc4)cc3n2)C1` [Example 58, N-(4-((3S,5R)-3-Amino-5-methylpiperidin-1-yl)pyridin-3-yl)-2-phenylthieno[3,2-b]pyridine-5-carboxamide], the results for the 50% inhibitory concentration (IC50) in test [1], in test [2] and in test [3] were ≤ 10 nM, ≤ 10 nM and 100 to 1000 nM, respectively.

As to `C[C@@H]1C[C@H](N)CN(c2ccncc2NC(=O)c2ccc3sc(C4CC4)cc3n2)C1` [Example 59, N-(4-((3S,5R)-3-Amino-5-methylpiperidin-1-yl)pyridin-3-yl)-2-cyclopropylthieno[3,2-b]pyridine-5-carboxamide], the half-maximal inhibitory concentration (IC50) in test [1] is ≤ 10 nM; in test [2], ≤ 10 nM; in test [3] it was ≤ 100 nM.

On to `C[C@@H]1C[C@H](N)CN(c2ccncc2NC(=O)c2ccc3sc(-c4cnn(C)c4)cc3n2)C1` [Example 60, N-(4-((3S,5R)-3-Amino-5-methylpiperidin-1-yl)pyridin-3-yl)-2-(1-methyl-1H-pyrazol-4-yl)thieno[3,2-b]pyridine-5-carboxamide], for which the values for the half-inhibitory concentration (IC50) in test [1], in test [2] and in test [3] were ≤ 10 nM, ≤ 10 nM and ≤ 100 nM, respectively.

As to `Cc1cc2nc(C(=O)Nc3cnccc3N3C[C@H](C)C[C@H](N)C3)ccc2s1` [Example 61, N-(4-((3S,5R)-3-Amino-5-methylpiperidin-1-yl)pyridin-3-yl)-2-methylthieno[3,2-b]pyridine-5-carboxamide], the values for the IC50 in test [1], in test [2] and in test [3] were ≤ 10 nM, ≤ 10 nM and 100 to 1000 nM, respectively.

Take `CC(C)c1csc2ccc(C(=O)Nc3cnccc3N3C[C@H](C)C[C@H](N)C3)nc12` [Example 62, N-(4-((3S,5R)-3-Amino-5-methylpiperidin-1-yl)pyridin-3-yl)-3-isopropylthieno[3,2-b]pyridine-5-carboxamide]: the IC50 in test [1] was ≤ 10 nM; in test [2], ≤ 10 nM; in test [3], ≤ 100 nM.

On to `C[C@@H]1C[C@H](N)CN(c2ccncc2NC(=O)c2ccc3scc(-c4cnn(C)c4)c3n2)C1` [Example 63, N-(4-((3S,5R)-3-Amino-5-methylpiperidin-1-yl)pyridin-3-yl)-3-(1-methyl-1H-pyrazol-4-yl)thieno[3,2-b]pyridine-5-carboxamide], for which the IC50 in test [1] was ≤ 10 nM; in test [2], > 40 nM; in test [3], > 2000 nM.

As for `COc1ccc(F)c(-c2csc3ccc(C(=O)Nc4cnccc4N4C[C@H](C)C[C@H](N)C4)nc23)c1F` [Example 64, N-(4-((3S,5R)-3-Amino-5-methylpiperidin-1-yl)pyridin-3-yl)-3-(2,6-difluoro-3-methoxyphenyl)thieno[3,2-b]pyridine-5-carboxamide], the IC50 in test [1] is ≤ 10 nM; in test [2] it was 10 to 50 nM; in test [3], 100 to 1000 nM.

In the case of `C[C@@H]1C[C@H](N)CN(c2ccncc2NC(=O)c2ccc3scc(C4CC4)c3n2)C1` [Example 65, N-(4-((3S,5R)-3-Amino-5-methylpiperidin-1-yl)pyridin-3-yl)-3-cyclopropylthieno[3,2-b]pyridine-5-carboxamide], the half-maximal inhibitory concentration (IC50) in test [1] was ≤ 10 nM; in test [2], ≤ 10 nM; in test [3] it was ≤ 100 nM.

As for `CCc1csc2ccc(C(=O)Nc3cnccc3N3CCC[C@H](N)C3)nc12` [Example 66, N-{4-[(3S)-3-Aminopiperidin-1-yl]pyridin-3-yl}-3-ethylthieno[3,2-b]pyridine-5-carboxamide], the half-inhibitory concentration (IC50) in test [1] is ≤ 10 nM; in test [2] it was ≤ 10 nM; in test [3], 100 to 1000 nM.

As for `N[C@H]1CCCN(c2ccncc2NC(=O)c2ccc3scc(C4CC4)c3n2)C1` [Example 67, (S)-N-(4-(3-Aminopiperidin-1-yl)pyridin-3-yl)-3-cyclopropylthieno[3,2-b]pyridine-5-carboxamide], the results for the IC50 in test [1], in test [2] and in test [3] were ≤ 10 nM, ≤ 10 nM and 100 to 1000 nM, respectively.

For `CC(C)c1coc2ccc(C(=O)Nc3cnccc3[C@@H]3C[C@H](C)C[C@H](N)C3)nc12` [Example 68, N-{4-[(1R,3S,5S)-3-Amino-5-methylcyclohexyl]pyridin-3-yl}-3-isopropylfuro[3,2-b]pyridine-5-carboxamide], the figures for the IC50 in test [1], in test [2] and in test [3] were ≤ 10 nM, ≤ 10 nM and ≤ 100 nM, respectively.

For `C[C@H]1CN(c2ccncc2NC(=O)c2ccc3cc(C4CC4)oc3n2)C[C@@H](N)[C@@H]1O` [Example 69, N-{4-[(3R,4R,5S)-3-Amino-4-hydroxy-5-methylpiperidin-1-yl]pyridin-3-yl}-2-cyclopropylfuro[2,3-b]pyridine-6-carboxamide], the IC50 in test [1] was ≤ 10 nM; in test [2], ≤ 10 nM; in test [3] it was ≤ 100 nM.

Turning to `C[C@@H]1C[C@H](N)CN(c2ccncc2NC(=O)c2ccc3cc(C4CC4)oc3n2)C1` [Example 70, N-{4-[(3S,5R)-3-Amino-5-methylpiperidin-1-yl]pyridin-3-yl}-2-cyclopropylfuro[2,3-b]pyridine-6-carboxamide], the 50% inhibitory concentration (IC50) was ≤ 10 nM in test [1], ≤ 10 nM in test [2] and ≤ 100 nM in test [3].

In the case of `C[C@H]1CN(c2ccncc2NC(=O)c2ccc3cc([C@@H]4C[C@H]4c4ccccc4)oc3n2)C[C@@H](N)[C@@H]1O` [Example 71, N-(4-((3R,4R,5S)-3-Amino-4-hydroxy-5-methylpiperidin-1-yl)pyridin-3-yl)-2-((1R,2R)-2-phenylcyclopropyl)furo[2,3-b]pyridine-6-carboxamide], the figures for the IC50 in test [1], in test [2] and in test [3] were ≤ 10 nM, ≤ 10 nM and ≤ 100 nM, respectively.

Turning to `C[C@H]1CN(c2ccncc2NC(=O)c2ccc3cc([C@H]4C[C@@H]4c4ccccc4)oc3n2)C[C@@H](N)[C@@H]1O` [Example 72, N-(4-((3R,4R,5S)-3-Amino-4-hydroxy-5-methylpiperidin-1-yl)pyridin-3-yl)-2-((1S,2S)-2-phenylcyclopropyl)furo[2,3-b]pyridine-6-carboxamide], the IC50 in test [1] was ≤ 10 nM; in test [2] it was ≤ 10 nM; in test [3], 1000 to 10000 nM.
